In patent publication US20240057596A1 (priority 2021, published 2024):
Read-outs that look alike come from different tables or passages of the source.

What was measured:
[1] = test system: Rhizoctonia solani; test: field trial sheath blight on rice in Thailand, percentage disease; type: in vivo; conditions: 750 g/ha, 2 sprays at 7 day interval; for percentage of disease (%): location L1; for percentage of sheath blight disease (%): location L2
Description: A field trial was established to test the efficacy of different compositions for control of sheath blight (Rhizoctonia solani) on rice in Thailand at two locations: L1: Bang Kham, Sriprachan, Suphanburi; and L2: Don Pru, Sriprachan, Suphanburi. Disease inoculation was performed 14 days before 1st spray.
(§1) At location L1, experimental design was randomize complete block (RCB); number of different treatments: six as provided in Table 11; number of replications: 4; plot size: 6×5 m/plot; rice variety: PTT1; and spray volume: 312.5 L/ha. One treatment had 4 replications, with one replication having 10 samplings.
Data assessments included percentage of length (cm) of the symptom infected and length of the plant (cm) before 1st spray; before 2nd spray; 7 days after 2nd spray; at 2 weeks after 2nd spray; at 3 weeks after 2nd spray; and at 2 weeks before harvest.
The percentage disease was calculated as follows:
Disease (%)=[length of infection symptom (cm)/length of plant (cm)]×100
as §1, with “L2,” for “L1,”
Data assessments included percentage of length (cm) of the symptom infected and length of the plant (cm) before 1st spray; before 2nd spray; 7 days after 2nd spray; 2 weeks after 2nd spray; at 3 weeks after 2nd spray; and at 2 weeks before harvest.

[2] = test system: rice plants; type: in vivo, rice variety: PTT1; conditions: 750 g/ha; for Yield (kg/plot): plot 9 m2, 120 DAS

## Cc1cccc2sc3nncn3c12 [Tricyclazole]
[1]; 2 WBH (106 DAS)
  percentage of disease (%): 35.63 b %
  percentage of sheath blight disease (%): 39.11 b %
[1]; 7 DAA#2 (89 DAS)
  percentage of disease (%): 35.66 bc %
[1]; 14 DAA#2 (96 DAS)
  percentage of disease (%): 37.90 c %
[1]; 21 DAA#2 (103 DAS)
  percentage of disease (%): 35.89 c %
[1]; BA#1 (before 1st spray, 75 DAS)
  percentage of disease (%): 22.57 a %
[1]; BA#2 (before 2nd spray, 82 DAS)
  percentage of disease (%): 40.05 bc %
[1]; 7 DAA#2 (84 DAS)
  percentage of sheath blight disease (%): 37.90 bc %
[1]; 14 DAA#2 (91 DAS)
  percentage of sheath blight disease (%): 38.71 d %
[1]; 21 DAA#2 (98 DAS)
  percentage of sheath blight disease (%): 39.75 d %
[1]; BA#1 (before 1st spray, 70 DAS)
  percentage of sheath blight disease (%): 26.10 a %
[1]; BA#2 (before 2nd spray, 77 DAS)
  percentage of sheath blight disease (%): 32.67 b %
[2]; location L1
  Yield (kg/ha): 5861.11 kg/ha
  Yield (kg/rai): 937.78 kg/rai
  Yield (kg/plot): 5.28 kg/plot
[2]; location L2
  Yield (kg/ha): 6638.89 ab kg/ha
  Yield (kg/rai): 1062.22 kg/rai
  Yield (kg/plot): 5.98 kg/plot
